# From patent US4368267A, “Epoxidation of lower α-olefins” (priority 1980, dated 1983)
# What was measured:
# [1] = test system: P(40), P(80), S(80) cell fractions of Methylosinus sp. (CRL-15, NRRL B-11,202); assay: Oxidation of n-alkanes and n-alkenes by cell fractions; format: biochemical; details: for Rate of Product Formation (substrate to 1,2-epoxide or alcohol): P(40) particulate fraction, 30° C.; for % Inhibition, Propylene-Epoxidizing Activity / % Inhibition, Methane-Hydroxylating Activity: inhibitor 10^-3 M; for % Inhibition, Propylene-Epoxidizing Activity: uninhibited rate 4.1; for % Inhibition, Methane-Hydroxylating Activity: uninhibited rate 4.5
# Protocol: Cells were washed twice with 25 mM potassium phosphate buffer, pH 7.0 containing 5 mM MgCl2. Cells were suspended in the same buffer. The cell suspensions at 4° C. were disintegrated by a single passage through a French Pressure cell (15,000 lb./in.^2) and centrifuged at 5000×g. for 15 min. to remove unbroken bacteria. The supernatant solution (crude extract) was then centrifuged at 40,000×g. for 30 min., yielding particulate P(40) and soluble S(40) fractions. The S(40) fraction was subsequently centrifuged at 80,000×g. for 60 min., yielding particulate P(80) and soluble S(80) fractions. The particulate fractions [P(40) and P(80)] were suspended in 25 mM potassium phosphate buffer, pH 7.0, containing 5 mM MgCl2 and homogenized at 4° C.
# […] The reaction mixtures contained in 1.0 ml: 150 mM potassium phosphate buffer, pH 7.0 containing 5 mM MgCl2, 0.6 ml; […] NADH, and cellular fraction.
# Reaction mixtures were contained in 10 ml vials at 4° C. Vials were sealed with rubber caps. The gaseous phase in the vials was removed using vacuum and then was replaced with a gas mixture of methane or propylene and oxygen at a 1:1, v/v ratio. Oxidation of other gaseous n-alkanes and n-alkenes was examined as described above. For liquid substrates, 10 μl of substrate was used directly.
# The products of epoxidation of n-alkenes and hydroxylation of n-alkanes were assayed by flame ionization gas chromatography using a stainless steel column (12'×1/8") packed with 10% Carbowax 20 M on 80/100 Chromosorb W and Porapak Q column. The column temperature was maintained isothermally at 120° C. The carrier gas flow rate was 30 ml/min. of helium. The various products were identified by retention time comparisons and co-chromatography with authentic standards.
# Specific activities were expressed as μ moles of products formed per hour per mg. protein. Concentrations of protein in various fractions were determined by the method of Lowry et al., J. Biol. Chem. 193: 265-275 (1951).
# [2] = test system: Methylosinus sporium 5 (NRRL B-11,197); assay: Methane hydroxylation and alkene epoxidation by washed cell suspensions; format: cell-based; details: methane-grown washed cells, 30° C.
# Protocol: (§1) The pH of the nutrient medium was adjusted to 7.0 by the addition of acid or base and 50 ml aliquots of the nutrient medium was charged into a plurality of 300 ml shake flasks. […] The isolates had been maintained on agar plates under an atmosphere of methane and air having a 1:1 v/v gas ratio which had been transferred every two weeks. The gaseous phase of the inoculated flasks was then replaced with a gas mixture comprised of methane and air having a ratio of 1:1 on a v/v basis. The inoculated flasks were sealed air tight and were incubated on a rotary shaker of orbital radius 2.5 cm at 250 rpm and at 30° C. for two days until the turbidity in the medium had developed.
# (§2) The cells were harvested by centrifugation at 10,000 ×g at 4° C. for 30 minutes. The cell pellet was washed twice with a 0.15 M phosphate buffer at a pH of 7.0 (containing 0.002 M MgCl2). The washed cells were then suspended in a 0.15 M phosphate buffer at pH 7.0.
# (§3) A 0.5 ml aliquot of each washed cell suspension (2 mg cells) was put into 10 ml vials at 4° C. which were sealed with a rubber cap. […] It was then incubated at 30° C. on a rotary shaker at 300 rpm. Samples of product (3 μl) were withdrawn periodically with a microsyringe and the products were analyzed by gas chromatography (ionization flame detector column).
# [3] = test system: Methylosinus trichosporium OB3b (NRRL B-11,196); assay: as above; format: cell-based; details: methane-grown washed cells, 30° C.
# Protocol: as §1, §2
# […] The gaseous phase of the vials was removed with vacuum and then was replaced with a gas mixture of alkene and oxygen at a 1:1 v/v ratio. It was then incubated at 30° C. on a rotary shaker at 300 rpm. Samples of product (3 μl) were withdrawn periodically with a microsyringe and the products were analyzed by gas chromatography (ionization flame detector column).
# [4] = test system: Methylococcus capsulatus (CRL M1, NRRL B-11,219); assay: Oxidation/epoxidation by washed cell suspensions; format: cell-based; details: methane-grown washed cells
# [5] = test system: Methylobacterium organophilum (CRL 26, NRRL B-11,222); assay: Epoxidation/hydroxylation by washed cell suspensions; format: cell-based; details: Propylene + 5 mM stimulator compound
# Protocol: (§4) The pH of the nutrient medium was adjusted to 7.0 by the addition of acid or base and 50 ml aliquots of the nutrient medium was charged into a plurality of 300 ml shake flasks. The shake flasks were inoculated with an inoculating loop of cells from an agar plate containing homogeneous colonies of the microorganisms on the plate (the purity of the isolates were confirmed by microscopic examination). The isolates had been maintained on agar plates under an atmosphere of methane and air having a 1:1 v/v gas ratio which had been transferred every two weeks. The gaseous phase of the inoculated flasks was then replaced with a gas mixture comprised of methane and air having a ratio of 1:1 on a v/v basis. The inoculated flasks were sealed air tight and were incubated on a rotary shaker of orbital radius 2.5 cm at 250 rpm and at 30° C. for two days until the turbidity in the medium had developed.
# as §2
# (§5) A 0.5 ml aliquot of each washed cell suspension (2 mg cells) was put into 10 ml vials at 4° C. which were sealed with a rubber cap. The gaseous phase of the vials was removed with vacuum and then was replaced with a gas mixture of alkene and oxygen at a 1:1 v/v ratio. It was then incubated at 30° C. on a rotary shaker at 300 rpm. Samples of product (3 μl) were withdrawn periodically with a microsyringe and the products were analyzed by gas chromatography (ionization flame detector column).
# (§6) Several experiments were carried out using a plurality of compounds capable of generating the necessary reducing power (NADH2 or NADPH2) required for the epoxidation of alkenes or dienes. These experiments were carried out using cell suspensions of methane grown methylotrophs using the procedure as described in Example 1 except that a stimulator compound was added to the reaction medium.
# [6] = test system: Methylococcus capsulatus strain MC; assay: Stimulation of propylene epoxidation in cell suspensions; format: cell-based; details: Propylene + 5 mM stimulator compound
# Protocol: as §4, §2, §5, §6
# [7] = test system: Methylobacter capsulatus Y (NRRL B-11,201); assay: Methane hydroxylation and propylene epoxidation by washed cell suspensions; format: cell-based; details: Propylene + 5 mM stimulator compound
# Protocol: as §4, §2, §3
# Several experiments were carried out using a plurality of compounds capable of generating the necessary reducing power (NADH2 or NADPH2) required for the epoxidation of alkenes or dienes. […]
smiles,measurement,setting,value
CC [Ethane],"Rate of Product Formation (substrate to 1,2-epoxide or alcohol)",[1],3.2 μmoles/hr/mg of protein
"c1ccc(-c2ccccn2)nc1 [α,α-Bipyridyl, reference compound]","% Inhibition, Propylene-Epoxidizing Activity",[1]; P(40) fraction,98%
same,"% Inhibition, Methane-Hydroxylating Activity",[1]; P(40) fraction,99%
"NC(N)=S [Thiourea, reference compound]","% Inhibition, Propylene-Epoxidizing Activity",[1]; P(40) fraction,98%
same,"% Inhibition, Methane-Hydroxylating Activity",[1]; P(40) fraction,98%
C=CC=C [Butadiene],"Conversion rate, butadiene to 1,2-epoxybutene",[2],1.5 μmole/hr/mg protein
same,"Conversion rate, butadiene to 1,2-epoxybutene",[3],2.6 μmole/hr/mg protein
same,"Rate of Product Formation (substrate to 1,2-epoxide or alcohol)",[1],0.63 μmoles/hr/mg of protein
O=S(=O)([O-])[O-].[Cu+2] [Cupric Sulfate],Methane-Oxidizing Activity in presence of metal,"[1]; P(40) fraction, metal 10^-3 M, control 4.0",7.1 μmoles/hr/mg protein
same,Propylene-Oxidizing Activity in presence of metal,"[1]; P(40) fraction, metal 10^-3 M, control […]",9.0 μmoles/hr/mg protein
C=CCCCC [Hexene-1],"Conversion rate, hexene-1 to 1,2-epoxyhexane",[2],0 μmole/hr/mg protein
same,"Conversion rate, hexene-1 to 1,2-epoxyhexane",[2]; listed as hexene-1,did not produce any detectable epoxide
same,"Conversion rate, hexene-1 to 1,2-epoxyhexane",[3],0 μmole/hr/mg protein
same,"Conversion rate, hexene-1 to 1,2-epoxyhexane",[3]; listed as hexene-1,did not produce any detectable epoxide
C=CC(=C)C [Isoprene],"Reaction Rate, isoprene to 1,2-epoxyisoprene",[4],0.064 μmoles/hr/mg biomass
COC [Dimethylether],Rate of Product Formation (Propylene Oxide),[5],50 nmoles/hr/mg protein
CC(C)C [Isobutane],"Reaction Rate, isobutane to isobutyraldehyde",[4],0.072 μmoles/hr/mg biomass
same,"Reaction Rate, isobutane to tertiary butanol",[4],0.051 μmoles/hr/mg biomass
"CC(C)(C)C [2,2-dimethylpropane]","Reaction Rate, 2,2-dimethylpropane to 2,2-dimethylpropanol",[4],0.085 μmoles/hr/mg biomass
"C=CCCC [Pentane-1, pentene-1]","Conversion rate, Pentane-1 to 1,2-epoxypentane",[2],0 μmole/hr/mg protein
same,"Conversion rate, pentene-1 to 1,2-epoxypentane",[2],did not produce any detectable epoxide
same,"Conversion rate, Pentane-1 to 1,2-epoxypentane",[3],0 μmole/hr/mg protein
same,"Conversion rate, pentene-1 to 1,2-epoxypentane",[3],did not produce any detectable epoxide
same,"Rate of Product Formation (substrate to 1,2-epoxide or alcohol)",[1],0 μmoles/hr/mg of protein
CCCO [Propanol],Rate of Product Formation (Propylene Oxide),[6],243 nmoles/hr/mg protein
same,Rate of Product Formation (Propylene Oxide),[5],66 nmoles/hr/mg protein
CCC=O [Propionaldehyde],Rate of Product Formation (Propylene Oxide),[7],54 nmoles/hr/mg protein
same,Rate of Product Formation (Propylene Oxide),[6],40 nmoles/hr/mg protein
